In ChEMBL document CHEMBL1909046, “DrugMatrix in vitro pharmacology data”:

Legend:
[1] = target: Beta-2 adrenergic receptor (Homo sapiens, UniProt P07550); experiment: DRUGMATRIX: Adrenergic beta2 radioligand binding (ligand: [3H] CGP-12177); assay type: cell membranes, Membrane; conditions: cho; Not Active = under 50% inhibition at 10 µM
[2] = target: Vascular endothelial growth factor receptor 1 (Homo sapiens, UniProt P17948); assay type: cell-based; conditions: huvec; note: in other assays of this panel Not Active means under 50% inhibition at 10 µM
Vascular endothelial growth factor receptor 1, sequence (P17948 whole entry): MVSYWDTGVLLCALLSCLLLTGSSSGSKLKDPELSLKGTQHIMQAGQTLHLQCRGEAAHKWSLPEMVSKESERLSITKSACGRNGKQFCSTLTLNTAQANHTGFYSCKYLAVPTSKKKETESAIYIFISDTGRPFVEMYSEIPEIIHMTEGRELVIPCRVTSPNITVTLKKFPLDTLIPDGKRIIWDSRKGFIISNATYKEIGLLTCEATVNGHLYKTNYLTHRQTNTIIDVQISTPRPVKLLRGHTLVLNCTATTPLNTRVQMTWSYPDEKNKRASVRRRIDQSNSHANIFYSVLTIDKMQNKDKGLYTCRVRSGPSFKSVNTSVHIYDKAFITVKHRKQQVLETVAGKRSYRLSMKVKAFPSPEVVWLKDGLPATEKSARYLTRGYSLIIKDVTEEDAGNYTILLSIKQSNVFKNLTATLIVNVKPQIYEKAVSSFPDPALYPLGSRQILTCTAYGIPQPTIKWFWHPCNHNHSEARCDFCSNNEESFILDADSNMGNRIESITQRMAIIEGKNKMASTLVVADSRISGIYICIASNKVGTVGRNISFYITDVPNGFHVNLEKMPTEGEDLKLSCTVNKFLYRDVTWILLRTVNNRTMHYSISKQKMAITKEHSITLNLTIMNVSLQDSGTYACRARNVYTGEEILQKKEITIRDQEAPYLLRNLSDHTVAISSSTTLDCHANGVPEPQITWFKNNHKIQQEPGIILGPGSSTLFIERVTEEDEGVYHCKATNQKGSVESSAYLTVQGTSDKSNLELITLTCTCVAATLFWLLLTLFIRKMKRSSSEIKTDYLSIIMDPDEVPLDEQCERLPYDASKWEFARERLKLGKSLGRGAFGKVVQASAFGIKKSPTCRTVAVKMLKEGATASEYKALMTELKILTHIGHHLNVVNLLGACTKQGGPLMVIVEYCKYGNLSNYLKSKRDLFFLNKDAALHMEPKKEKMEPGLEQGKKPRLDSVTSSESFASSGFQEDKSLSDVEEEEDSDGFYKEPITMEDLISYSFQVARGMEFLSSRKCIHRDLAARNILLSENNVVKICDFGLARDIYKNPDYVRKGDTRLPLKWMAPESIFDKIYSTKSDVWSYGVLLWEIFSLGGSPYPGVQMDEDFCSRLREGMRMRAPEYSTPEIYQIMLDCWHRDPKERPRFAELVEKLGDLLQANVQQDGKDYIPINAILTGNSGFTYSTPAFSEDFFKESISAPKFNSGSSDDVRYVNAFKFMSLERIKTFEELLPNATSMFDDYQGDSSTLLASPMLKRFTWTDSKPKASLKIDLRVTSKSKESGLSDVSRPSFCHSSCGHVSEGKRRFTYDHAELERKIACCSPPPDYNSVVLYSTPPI

[3] = target: T1, C-X-C chemokine receptor type 1 (Homo sapiens, UniProt P25024); note: in other assays of this panel Not Active means under 50% inhibition at 10 µM
T1 sequence (P25024 whole entry): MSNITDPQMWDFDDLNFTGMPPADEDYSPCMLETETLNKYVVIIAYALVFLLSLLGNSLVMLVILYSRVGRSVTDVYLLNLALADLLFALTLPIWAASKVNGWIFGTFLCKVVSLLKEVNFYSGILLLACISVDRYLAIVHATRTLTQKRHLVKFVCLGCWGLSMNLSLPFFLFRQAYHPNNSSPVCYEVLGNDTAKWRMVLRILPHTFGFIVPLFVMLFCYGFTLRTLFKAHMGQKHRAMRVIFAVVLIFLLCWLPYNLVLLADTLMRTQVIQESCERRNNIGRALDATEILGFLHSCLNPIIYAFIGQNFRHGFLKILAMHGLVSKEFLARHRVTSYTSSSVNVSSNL

[4] = target: T2, Cholecystokinin receptor type A (Homo sapiens, UniProt P32238); assay type: cell membranes, Membrane; conditions: 1321-n1; note: in other assays of this panel Not Active means under 50% inhibition at 10 µM
T2 sequence (P32238 whole entry): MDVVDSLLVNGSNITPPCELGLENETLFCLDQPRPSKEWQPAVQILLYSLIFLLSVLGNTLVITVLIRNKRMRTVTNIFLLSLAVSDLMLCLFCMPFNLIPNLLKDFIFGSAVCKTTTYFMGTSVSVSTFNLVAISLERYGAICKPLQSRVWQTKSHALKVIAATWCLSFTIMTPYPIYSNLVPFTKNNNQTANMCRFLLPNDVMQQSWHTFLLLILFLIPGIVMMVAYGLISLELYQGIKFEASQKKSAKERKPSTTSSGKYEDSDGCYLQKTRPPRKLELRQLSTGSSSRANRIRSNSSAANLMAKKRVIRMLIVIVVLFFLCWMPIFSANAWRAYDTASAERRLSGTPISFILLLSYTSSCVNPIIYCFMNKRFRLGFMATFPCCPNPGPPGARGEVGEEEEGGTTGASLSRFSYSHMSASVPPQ

D(4) dopamine receptor = target: T3, D(4) dopamine receptor (Homo sapiens, UniProt P21917); experiment: DRUGMATRIX: Dopamine D4.2 radioligand binding (ligand: [3H] Spiperone); assay type: cell membranes, CHO-K1, Membrane; conditions: Not Active = under 50% inhibition at 10 µM
T3 sequence (P21917 whole entry): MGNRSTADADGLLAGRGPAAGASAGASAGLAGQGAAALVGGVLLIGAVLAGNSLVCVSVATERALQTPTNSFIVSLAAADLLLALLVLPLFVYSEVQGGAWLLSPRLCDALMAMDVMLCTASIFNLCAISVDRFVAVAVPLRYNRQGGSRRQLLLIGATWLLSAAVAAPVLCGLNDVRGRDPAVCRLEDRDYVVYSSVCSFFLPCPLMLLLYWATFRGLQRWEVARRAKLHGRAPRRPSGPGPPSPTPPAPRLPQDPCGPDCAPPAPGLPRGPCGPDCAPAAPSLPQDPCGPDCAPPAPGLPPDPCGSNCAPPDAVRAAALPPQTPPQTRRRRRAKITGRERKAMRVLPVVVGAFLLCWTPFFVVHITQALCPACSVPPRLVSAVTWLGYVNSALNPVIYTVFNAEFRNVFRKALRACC

Glycine receptor = Glycine receptor (Rattus norvegicus, UniProt P22771+P24524+P07727+P20781); assay type: cell membranes, Wistar, Spinal cord, Membrane; note: in other assays of this panel Not Active means under 50% inhibition at 10 µM
Adenosine receptor A1 = target: T4, Adenosine receptor A1 (Homo sapiens, UniProt P30542); assay type: cell membranes, CHO, Membrane
T4 sequence (P30542 whole entry): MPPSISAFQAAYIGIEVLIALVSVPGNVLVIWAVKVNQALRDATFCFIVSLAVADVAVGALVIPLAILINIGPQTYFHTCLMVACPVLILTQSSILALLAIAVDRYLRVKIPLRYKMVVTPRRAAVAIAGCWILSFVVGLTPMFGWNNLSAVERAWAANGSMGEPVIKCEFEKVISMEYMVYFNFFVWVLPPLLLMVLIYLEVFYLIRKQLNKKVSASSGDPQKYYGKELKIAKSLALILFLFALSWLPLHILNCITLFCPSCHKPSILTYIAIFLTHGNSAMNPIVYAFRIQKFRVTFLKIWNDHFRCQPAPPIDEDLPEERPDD

COc1nc(C)nc(Cl)c1NC1=NCCN1 [MOXONIDINE]
Not Active: IC50 [1] | IC50 [2] | IC50 [3] | IC50 [4] | IC50 (D(4) dopamine receptor; cho-k1) | IC50 (Glycine receptor) | IC50 (Adenosine receptor A1; cho)

N[C@@H](Cc1ccc(O)c(O)c1)C(=O)O [LEVODOPA]
Not Active: IC50 [1] | IC50 [2] | IC50 [3] | IC50 [4] | IC50 (D(4) dopamine receptor; cho-k1) | IC50 (Glycine receptor) | IC50 (Adenosine receptor A1; cho)

OCCN(CCO)c1nc(N2CCCCC2)c2nc(N(CCO)CCO)nc(N3CCCCC3)c2n1 [DIPYRIDAMOLE]
Not Active: IC50 [1] | IC50 [2] | IC50 [3] | IC50 [4] | IC50 (D(4) dopamine receptor; cho-k1) | IC50 (Glycine receptor) | IC50 (Adenosine receptor A1; cho)

Cn1ccnc1S [METHIMAZOLE]
Not Active: IC50 [1] | IC50 [2] | IC50 [3] | IC50 [4] | IC50 (D(4) dopamine receptor; cho-k1) | IC50 (Glycine receptor) | IC50 (Adenosine receptor A1; cho)

CC(=O)[C@@]1(O)CC[C@H]2[C@@H]3C[C@H](C)C4=CC(=O)CC[C@]4(C)[C@H]3CC[C@@]21C
Not Active: IC50 [1] | IC50 [2] | IC50 [3] | IC50 [4] | IC50 (D(4) dopamine receptor; cho-k1) | IC50 (Glycine receptor) | IC50 (Adenosine receptor A1; cho)

C=CCC1(C(C)CCC)C(=O)NC(=O)NC1=O (configuration not stated) [SECOBARBITAL]
Not Active: IC50 [1] | IC50 [2] | IC50 [3] | IC50 [4] | IC50 (D(4) dopamine receptor; cho-k1) | IC50 (Glycine receptor) | IC50 (Adenosine receptor A1; cho)

C[C@@H]1CN(c2c(F)c(N)c3c(=O)c(C(=O)O)cn(C4CC4)c3c2F)C[C@H](C)N1 [SPARFLOXACIN]
Not Active: IC50 [1] | IC50 [2] | IC50 [3] | IC50 [4] | IC50 (D(4) dopamine receptor; cho-k1) | IC50 (Glycine receptor) | IC50 (Adenosine receptor A1; cho)

O=c1ncn2nc(Sc3ccc(F)cc3F)ccc2c1-c1c(Cl)cccc1Cl [NEFLAMAPIMOD]
Not Active: IC50 [1] | IC50 [2] | IC50 [3] | IC50 [4] | IC50 (D(4) dopamine receptor; cho-k1) | IC50 (Glycine receptor) | IC50 (Adenosine receptor A1; cho)

Nc1c2c(nc3ccccc13)CCCC2 [TACRINE]
Not Active: IC50 [1] | IC50 [2] | IC50 [3] | IC50 [4] | IC50 (D(4) dopamine receptor; cho-k1) | IC50 (Glycine receptor) | IC50 (Adenosine receptor A1; cho)

CO[C@H]1/C=C/O[C@@]2(C)Oc3c(C)c(O)c4c(O)c(c(/C=N/N5CCN(C)CC5)c(O)c4c3C2=O)NC(=O)/C(C)=C\C=C\[C@H](C)[C@H](O)[C@@H](C)[C@@H](O)[C@@H](C)[C@H](OC(C)=O)[C@@H]1C [RIFAMPIN]
Not Active: IC50 [1] | IC50 [2] | IC50 [3] | IC50 [4] | IC50 (D(4) dopamine receptor; cho-k1) | IC50 (Glycine receptor) | IC50 (Adenosine receptor A1; cho)

CCCCc1oc2ccccc2c1C(=O)c1cc(I)c(OCCN(CC)CC)c(I)c1 [AMIODARONE]
17.7 µM: IC50 (D(4) dopamine receptor; read-out: IC50)
6.21 µM: Ki (D(4) dopamine receptor; read-out: Ki)
Not Active: IC50 [1] | IC50 [2] | IC50 [3] | IC50 [4] | IC50 (Glycine receptor) | IC50 (Adenosine receptor A1; cho)

CCOC(=O)N1CCC(=C2c3ccc(Cl)cc3CCc3cccnc32)CC1 [LORATADINE]
Not Active: IC50 [1] | IC50 [2] | IC50 [3] | IC50 [4] | IC50 (D(4) dopamine receptor; cho-k1) | IC50 (Glycine receptor) | IC50 (Adenosine receptor A1; cho)

N[C@@H](Cc1ccc(N(CCCl)CCCl)cc1)C(=O)O
Not Active: IC50 [1] | IC50 [2] | IC50 [3] | IC50 [4] | IC50 (D(4) dopamine receptor; cho-k1) | IC50 (Glycine receptor) | IC50 (Adenosine receptor A1; cho)

Cc1noc(NS(=O)(=O)c2ccc(N)cc2)c1C [SULFISOXAZOLE]
Not Active: IC50 [1] | IC50 [2] | IC50 [3] | IC50 [4] | IC50 (D(4) dopamine receptor; cho-k1) | IC50 (Glycine receptor) | IC50 (Adenosine receptor A1; cho)

N[C@@H](Cc1cc(I)c(Oc2ccc(O)c(I)c2)c(I)c1)C(=O)O [LIOTHYRONINE]
0.24 µM: Ki (Adenosine receptor A1; read-out: Ki)
0.411 µM: IC50 (Adenosine receptor A1; read-out: IC50)
Not Active: IC50 [1] | IC50 [2] | IC50 [3] | IC50 [4] | IC50 (D(4) dopamine receptor; cho-k1) | IC50 (Glycine receptor)

c1ccc([C@H]2CN3CCSC3=N2)cc1 [LEVAMISOLE]
Not Active: IC50 [1] | IC50 [2] | IC50 [3] | IC50 [4] | IC50 (D(4) dopamine receptor; cho-k1) | IC50 (Glycine receptor) | IC50 (Adenosine receptor A1; cho)

CC1(C)O[C@@H]2C[C@H]3[C@@H]4CCC5=CC(=O)C=C[C@]5(C)[C@@]4(F)[C@@H](O)C[C@]3(C)[C@]2(C(=O)CO)O1 [TRIAMCINOLONE ACETONIDE]
Not Active: IC50 [1] | IC50 [2] | IC50 [3] | IC50 [4] | IC50 (D(4) dopamine receptor; cho-k1) | IC50 (Glycine receptor) | IC50 (Adenosine receptor A1; cho)

N#CC(C#N)=Cc1ccc(O)c(O)c1 [TYRPHOSTIN 23]
Not Active: IC50 [1] | IC50 [2] | IC50 [3] | IC50 [4] | IC50 (D(4) dopamine receptor; cho-k1) | IC50 (Glycine receptor) | IC50 (Adenosine receptor A1; cho)

Nc1nc2nc[nH]c2c(=S)[nH]1 [THIOGUANINE]
Not Active: IC50 [1] | IC50 [2] | IC50 [3] | IC50 [4] | IC50 (D(4) dopamine receptor; cho-k1) | IC50 (Glycine receptor) | IC50 (Adenosine receptor A1; cho)

NS(=O)(=O)c1cc2c(cc1Cl)NC(C(Cl)Cl)NS2(=O)=O (configuration not stated) [TRICHLORMETHIAZIDE]
Not Active: IC50 [1] | IC50 [2] | IC50 [3] | IC50 [4] | IC50 (D(4) dopamine receptor; cho-k1) | IC50 (Glycine receptor) | IC50 (Adenosine receptor A1; cho)

CC(C)N1CCN(c2ccc(OCC3COC(Cn4cncn4)(c4ccc(Cl)cc4Cl)O3)cc2)CC1 (configuration not stated) [TERCONAZOLE]
Not Active: IC50 [1] | IC50 [2] | IC50 [3] | IC50 [4] | IC50 (D(4) dopamine receptor; cho-k1) | IC50 (Glycine receptor) | IC50 (Adenosine receptor A1; cho)

CN1CCN(CCCN2c3ccccc3Sc3ccc(Cl)cc32)CC1 [PROCHLORPERAZINE]
0.81 µM: Ki (D(4) dopamine receptor; read-out: Ki)
2.31 µM: IC50 (D(4) dopamine receptor; read-out: IC50)
Not Active: IC50 [1] | IC50 [2] | IC50 [3] | IC50 [4] | IC50 (Glycine receptor) | IC50 (Adenosine receptor A1; cho)

CC(C)(C)NC(=O)[C@@H]1C[C@@H]2CCCC[C@@H]2CN1C[C@@H](O)[C@H](Cc1ccccc1)NC(=O)[C@H](CC(N)=O)NC(=O)c1ccc2ccccc2n1
Not Active: IC50 [1] | IC50 [2] | IC50 [3] | IC50 [4] | IC50 (D(4) dopamine receptor; cho-k1) | IC50 (Glycine receptor) | IC50 (Adenosine receptor A1; cho)

SODIUM NITROPRUSSIDE
Not Active: IC50 [1] | Ki [1] | IC50 [2] | Ki [2] | IC50 [3] | Ki [3] | IC50 [4] | Ki [4] | IC50 (D(4) dopamine receptor; cho-k1) | Ki (D(4) dopamine receptor; cho-k1) | IC50 (Glycine receptor) | Ki (Glycine receptor) | IC50 (Adenosine receptor A1; cho) | Ki (Adenosine receptor A1; cho)

NC[C@H]1CC[C@H](C(=O)O)CC1 [TRANEXAMIC ACID]
Not Active: IC50 [1] | IC50 [2] | IC50 [3] | IC50 [4] | IC50 (D(4) dopamine receptor; cho-k1) | IC50 (Glycine receptor) | IC50 (Adenosine receptor A1; cho)

CC/C(=C(\c1ccccc1)c1ccc(OCCN(C)C)cc1)c1ccccc1 [TAMOXIFEN]
3.91 µM: Ki (D(4) dopamine receptor; read-out: Ki)
Not Active: IC50 [1] | IC50 [2] | IC50 [3] | IC50 [4] | IC50 (Glycine receptor)
11.2 µM: IC50 (D(4) dopamine receptor; read-out: IC50)
